This passage reports IC50 results from patent US20130096105A1, “ArylSulfonamide Based Matrix Metalloprotease Inhibitors” (NOVARTIS AG, priority 2008, published 2013).

In general, IC50 refers to the concentration that gives 50% inhibition.

The target of one test is T1, Gelatinase (MMP-2) (Homo sapiens, UniProt P08253).
T1 sequence (P08253 110-660): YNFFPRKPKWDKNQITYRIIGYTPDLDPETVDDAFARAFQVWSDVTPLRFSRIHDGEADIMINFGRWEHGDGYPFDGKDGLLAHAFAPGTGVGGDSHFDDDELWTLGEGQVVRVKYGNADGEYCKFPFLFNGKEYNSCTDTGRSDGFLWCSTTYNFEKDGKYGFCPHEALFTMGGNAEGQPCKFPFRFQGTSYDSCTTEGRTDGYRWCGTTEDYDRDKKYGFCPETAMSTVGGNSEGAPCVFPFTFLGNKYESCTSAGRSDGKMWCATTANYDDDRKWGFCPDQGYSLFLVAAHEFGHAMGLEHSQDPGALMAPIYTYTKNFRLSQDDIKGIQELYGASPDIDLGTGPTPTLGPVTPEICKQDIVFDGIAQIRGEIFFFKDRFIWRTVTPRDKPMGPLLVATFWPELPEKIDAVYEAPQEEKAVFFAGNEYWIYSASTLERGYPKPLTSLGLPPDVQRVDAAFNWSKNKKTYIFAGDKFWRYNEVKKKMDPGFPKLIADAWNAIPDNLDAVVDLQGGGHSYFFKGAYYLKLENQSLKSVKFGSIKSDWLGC
Put plainly: Gelatinase (MMP-2) inhibitory activity, fluorogenic peptide substrate cleavage. The test is classed as biochemical. The conditions noted are these: read-out: MMP02 IC50. As for the experimental part:
(§1) Gelatinase (MMP-2) inhibitory activities can be determined as follows: Stock solutions of substrate (MCA-Lys-Pro-Leu-Gly-Leu-Dpa-Ala-Arg-NH2) are prepared in DMSO at a concentration of 1.4 mM. Stock solutions of inhibitors (0.03 μM-3 mM) are also prepared in DMSO. The inhibitors are diluted into the assay solutions, and the controls use an equal volume of DMSO so that the final DMSO concentration from the inhibitor and substrate dilutions in all assays is 1.0%. Assays are performed in an assay buffer (100 mM sodium chloride, 10 μM ZnCl. Sub 2, 10 mM CaCl2, 100 mM Tris-Cl pH7.5, 0.05% Brij-35), containing 1.0% DMSO from the substrate and inhibitor additions. The substrate concentration used in the assays is 5 μM. The assays are carried out at 20-25° C. The fluorescence changes, as a result of substrate cleavage, are monitored using an excitation wavelength of 325 nm and an emission wavelength of 405 nm. The reaction mixtures are added in duplicate into appropriate wells of a 384-well assay plate. The reaction mixtures are preincubated with the inhibitors for 60 minutes The reactions are started by the addition of MMP substrate, and the fluorescence intensity changes are measured after 60 minutes The apparent enzyme activity in the presence of an inhibitor is then compared with that in the absence of any inhibitor to determine the inhibition effect of the inhibitor. These techniques are within the knowledge of one skilled in the art. The inhibition results are expressed as the inhibitor concentrations required to effect 50% inhibition (IC50) of the enzyme activity, as compared with the control (non-inhibited) reactions.

For another test, the target named is Collagenase-3 (MMP-13) (Homo sapiens, UniProt P45452). The test can be described thus: Collagenase-3 (MMP-13) inhibitory activity, fluorogenic peptide substrate cleavage. The test is classed as biochemical. The conditions noted are these: read-out: MMP13 IC50. As for the experimental part:
as §1
Collagenase-3 (MMP-13) inhibitory activity is determined as described above. Recombinant pro-collagenase-3 is activated with 1 mM APMA, and stored in the assay buffer after extensive dialysis in the assay buffer.

Consider “2-Chloro-5-(3-hydroxy-4-methoxy-benzoyl)-benzenesulfonamide [Example 56]”, for which the IC50 on Gelatinase (MMP-2) was greater than 30000 nM; on Collagenase-3 (MMP-13) it was 26700 nM.

Take `Cc1n[nH]c2cc(C(=O)c3ccc(Cl)c(S(N)(=O)=O)c3)ccc12` [Example 100, 2-Chloro-5-(3-methyl-1H-indazole-6-carbonyl)benzenesulfonamide]: the IC50 on Gelatinase (MMP-2) amounted to 260 nM; on Collagenase-3 (MMP-13) it was 250 nM.

For `Cc1cc(Br)ccc1C(=O)c1ccc(Cl)c(S(N)(=O)=O)c1` [Example 46, 5-(4-Bromo-2-methyl-benzoyl)-2-chloro-benzenesulfonamide], the IC50 was found to be 150 nM at Gelatinase (MMP-2) and 210 nM on Collagenase-3 (MMP-13).

On to `COc1ccc(C(=O)c2ccc(Cl)c(S(=O)(=O)NCCc3ccc([N+](=O)[O-])cc3)c2)cc1` [Example 91, 2-Chloro-5-(4-methoxy-benzoyl)-N-[2-(4-nitro-phenyl)-ethyl]-benzenesulfonamide], for which the IC50 at Gelatinase (MMP-2) was greater than 30000 nM; at Collagenase-3 (MMP-13), 22500 nM.

Turning to `NS(=O)(=O)c1cc(C(=O)c2ccc3ccccc3c2)ccc1Cl` [Example 93, 2-Chloro-5-(naphthalene-2-carbonyl)benzenesulfonamide], the IC50 on Gelatinase (MMP-2) is 26500 nM; at Collagenase-3 (MMP-13) it was 13700 nM.

As to “2-Chloro-5-(4-pyridin-4-yl-benzoyl)-benzenesulfonamide [Example 42]”, the IC50 on Gelatinase (MMP-2) came out at 510 nM; on Collagenase-3 (MMP-13), 1500 nM.

For `NS(=O)(=O)c1cccc(C(=O)c2ccc3cc[nH]c3c2)c1` [Example 146, 3-(1H-Indole-6-carbonyl)-benzenesulfonamide], the IC50 on Gelatinase (MMP-2) was found to be 240 nM; at Collagenase-3 (MMP-13), 200 nM.

Take `NS(=O)(=O)c1cc(C(=O)c2ccc3c(-c4ccc(F)cc4)c[nH]c3c2)ccc1Cl` [Example 120, 2-Chloro-5-[3-(4-fluoro-phenyl)-1H-indole-6-carbonyl]-benzenesulfonamide]: the results for the IC50 at Gelatinase (MMP-2) and on Collagenase-3 (MMP-13) were 1900 nM and 950 nM, respectively.

Take `Cc1nc2ccc(C(=O)c3ccc(Cl)c(S(N)(=O)=O)c3)cc2[nH]1` [Example 98, 2-Chloro-5-(2-methyl-3H-benzoimidazole-5-carbonyl)-benzenesulfonamide]: the IC50 at Gelatinase (MMP-2) is 2250 nM; on Collagenase-3 (MMP-13), 8310 nM.

As to `NS(=O)(=O)c1cc(C(=O)c2ccc(N3CCCCC3)cc2)ccc1Cl` [Example 83, 2-Chloro-5-(4-piperidin-1-yl-benzoyl)-benzenesulfonamide], the IC50 on Gelatinase (MMP-2) worked out at 870 nM; at Collagenase-3 (MMP-13), 1770 nM.

`NS(=O)(=O)c1cc(C(=O)c2ccc(-c3cccc(Br)c3)cc2)ccc1Cl` [Example 67, 5-(3′-Bromo-biphenyl-4-carbonyl)-2-chloro-benzenesulfonamide]: the figures for the IC50 on Gelatinase (MMP-2) and at Collagenase-3 (MMP-13) were 10200 nM and 5290 nM, respectively.

Regarding `CC(=O)c1ccc(-c2c[nH]c3cc(C(=O)c4ccc(Cl)c(S(N)(=O)=O)c4)ccc23)cc1` [Example 122, 5-[3-(4-Acetyl-phenyl)-1H-indole-6-carbonyl]-2-chloro-benzenesulfonamide], the IC50 worked out at 12500 nM on Gelatinase (MMP-2) and 1450 nM at Collagenase-3 (MMP-13).

For `NS(=O)(=O)c1cc(C(=O)c2ccc3c(-c4ccsc4)c[nH]c3c2)ccc1Cl` [Example 127, 2-Chloro-5-(3-thiophen-3-yl-1H-indole-6-carbonyl)-benzenesulfonamide], on Collagenase-3 (MMP-13), the IC50 worked out at 1600 nM.

On to `Cc1cc(-c2c[nH]c3cc(C(=O)c4ccc(C)c(S(N)(=O)=O)c4)ccc23)ccn1` [Example 147, 2-Methyl-5-[3-(2-methyl-pyridin-4-yl)-1H-indole-6-carbonyl]-benzenesulfonamide], for which the values for the IC50 on Gelatinase (MMP-2) and at Collagenase-3 (MMP-13) were 2400 nM and 20 nM, respectively.

`CCc1nn(Cc2ccccc2)c2cc(C(=O)c3ccc(Cl)c(S(N)(=O)=O)c3)ccc12` [Example 111, 5-(1-Benzyl-3-ethyl-1H-indazole-6-carbonyl)-2-chloro-benzenesulfonamide]: at Gelatinase (MMP-2), the IC50 was greater than 30000 nM.

In the case of `NS(=O)(=O)c1cc(C(=O)c2ccc3c(CCC4CCCC4)n[nH]c3c2)ccc1Cl` [Example 112, 2-Chloro-5-[3-(2-cyclopentyl-ethyl)-1H-indazole-6-carbonyl]-benzenesulfonamide], at Collagenase-3 (MMP-13), the IC50 worked out at 129 nM.
